The values below come from PubChem BioAssay AID602338 (NMMLSC, 2012).

In general, EC50 refers to the concentration giving half of the maximal effect.

Molecules are shown by their SMILES. Active and inactive are the calls of the source. No rule for the calls is given here. Some results are limits rather than exact numbers.

The experiment has as its target Botulinum neurotoxin type F (Clostridium botulinum) (UniProt P30996). Briefly: Botulinum neurotoxin type F protease inhibition, microsphere cleavage flow cytometry, confirmatory dose response (AID 602338). The conditions noted are these: multiplex microsphere protease cleavage assay.
`COc1ccc(OC)c(-c2nc3cc4ccccc4cc3nc2-c2ccccc2)c1`: the EC50 is > 20 µM (inactive). In the case of `CS(=O)(=O)N1N=C(c2ccccc2)CC1c1ccc2c(c1)OCO2` (centres undefined) it was > 20 µM (inactive); in that of `O=[N+]([O-])c1cccc(-c2cn3nc(-c4ccccc4)c(-c4ccccc4)nc3n2)c1`, > 20 µM (inactive); in that of `CCS(=O)(=O)N1N=C(c2cccc(NS(C)(=O)=O)c2)CC1c1ccccc1` (centres undefined), > 20 µM (inactive). With `O=C(Nc1ccc2nc(-c3cccs3)c(-c3cccs3)nc2c1)N1CCOCC1`, the EC50 is > 20 µM (inactive). For `CCSc1nnc(-c2sc3nnc(-c4ccccc4)c(-c4ccccc4)c3c2N)o1`, the EC50 was > 20 µM (inactive).

Take `Cn1c(=O)c(/C=C/c2ccccc2)nc2ccccc21`: the EC50 was > 20 µM (inactive). As for `CCOc1ccc2nc3cc(NCc4ccc(OC)cc4)ccc3c(N)c2c1`, the EC50 was > 20 µM (inactive). The same measure for `COc1ccc(C2CC(c3cccs3)=NN2c2nc(C)c(C(C)=O)s2)cc1OC` (centres undefined): > 20 µM (inactive).

For `Oc1[nH]c(N=C2N=c3ccccc3=N2)c2ccccc12`, the EC50 was > 20 µM (inactive). With `O=c1c(/C=C(\O)c2ccccc2)nc2ccccc2n1-c1ccccc1`, the EC50 is > 20 µM (inactive). Consider `CSc1nnc2c(n1)c(C)nn2-c1cccc(C)c1`, for which the EC50 was > 20 µM (inactive). On to `c1ccc(-c2cn3nc(-c4ccccc4)c(-c4ccccc4)nc3n2)cc1`, for which the EC50 is > 20 µM (inactive). For the compound `O=C(Nc1ccc2nc(-c3cccs3)c(-c3cccs3)nc2c1)NC1CC1`, the EC50 is > 20 µM (inactive).
